The nature of the data set: Human HepG2 cell viability assay in 384 well format. The data set is classed as toxicity, cell-based. Details: dose 125 nL, time 70.5 hour; cytotoxicity at 70.5 h: concentration not given beside the values. As to conditions: HepG2 cells, read-out: Inhibition.

The values that follow come from ChEMBL document CHEMBL3507680, “University of Dundee, Gates Library screen for HepG2 cell viability”.

Molecules are shown by their SMILES.

On to `Cc1occc1CNC(=O)C1CCCN1C(=O)C1CC1` (stereo unspecified), for which the cytotoxicity at 70.5 h was -6.76%.
The figure for `CCc1nc(C2CCCN2CCc2cccs2)no1` (stereo unspecified) is 17.3%.
The figure for `Cc1ccc2cccc(S(=O)(=O)N(C)C3CCCN(C)C3)c2n1` (stereo unspecified) is 0.353%; for `CCc1nccn1CC(=O)Nc1cccc(C(=O)N(C)C)c1` it is 7.42%.
The figure for `COC(=O)CNC(=O)CCCn1cnc2ccccc2c1=O` is -1.4%.
With `O=C(CCn1c(=O)oc2ccccc21)NCC(O)c1ccc(Cl)cc1` (stereo unspecified), the cytotoxicity at 70.5 h amounted to 9.7%.
The figure for `Cc1cc(CN(C)C(=O)CN2CCCCCC2=O)no1` is -10.3%.
On to `Cc1cc(NC(=O)Cc2ccc3c(c2)OCO3)n(C)n1`, for which the cytotoxicity at 70.5 h is -0.417%.
Take `O=C(CC1CCCO1)NCCCC(=O)Nc1ccc(Cl)cc1` (stereo unspecified): the cytotoxicity at 70.5 h was -7.07%.
With `CCOC(C)C(=O)NCCNS(C)(=O)=O` (stereo unspecified), the cytotoxicity at 70.5 h was -6.01%.
In the case of `O=C(Cc1cccc(F)c1)NCCNS(=O)(=O)C1CCCC1`, the cytotoxicity at 70.5 h is -12.5%.
Consider `O=C(Cc1ccccc1)NCCNS(=O)(=O)C1CCCCC1`, for which the cytotoxicity at 70.5 h was -2.64%.
With `CCCS(=O)(=O)NCCc1ncc(C)s1`, the cytotoxicity at 70.5 h is -11.1%.
`CN(C)S(=O)(=O)N1CCN(C(=O)OC(C)(C)C)CC12CCCCC2`: the cytotoxicity at 70.5 h is -6.87%.
The figure for `CC(C)(NS(C)(=O)=O)c1nc(-c2ccc(F)cc2Cl)no1` is -6.02%.
The value for `CC(C)(NS(C)(=O)=O)c1nc(-c2cccc(Cl)c2)no1` was -4.4%; that for `Cn1ccc(NCc2cc3cc(F)ccc3o2)n1` was -4.66%.
For the compound `CCN(CC)S(=O)(=O)N1CCCN(CC2CCCO2)CC1` (stereo unspecified), the cytotoxicity at 70.5 h amounted to 23.8%.
The figure for `CC1c2ccsc2CCN1Cc1cc2c(cc1O)OCO2` (stereo unspecified) is -5.73%.
Consider `OC(CNC1CCOCC1)c1cccc(OCc2ccccc2)c1` (stereo unspecified), for which the cytotoxicity at 70.5 h is -10.5%.
With `CNC(=O)NCC(CO)Cc1cccc(OC(F)(F)F)c1` (stereo unspecified), the cytotoxicity at 70.5 h is -8.42%.
As for `CCN(CC)c1ncc(CNCC2CCCn3ccnc32)s1` (stereo unspecified), the cytotoxicity at 70.5 h was determined as 8.16%.
The value for `Cc1ncc(CNCC(=O)NC2CCCCC2)n1-c1ccccc1` was 9.11%.
As to `Cc1ccc(C)c(C(O)CN(C)Cc2nnc3ccccn23)c1` (stereo unspecified), the cytotoxicity at 70.5 h is 9.37%.
The value for `CC1CCCN(c2ccccc2OCC(=O)NC2CCOCC2)C1` (stereo unspecified) was 28.3%; that for `O=C(CCc1ccsc1)N(Cc1ccccn1)C1CC1` was -2.46%; that for `CCC(C)NC(=O)c1ccc(-c2ccco2)[nH]c1=O` (stereo unspecified) was -5.06%.
For `CC(COCC(F)(F)F)NC(=O)c1ccc(-c2ccco2)[nH]c1=O` (stereo unspecified), the cytotoxicity at 70.5 h was -1.67%.
The figure for `CC(C)NC(=O)CNC(=O)C12CCC(=O)N1c1cc(Cl)ccc1S2` (stereo unspecified) is -0.426%; for `CC(C)c1ccc(CS(=O)(=O)Cc2nc(N)nc(N(C)C)n2)cc1` it is -6.09%; for `COCC(=O)N1CCN(C(=O)CCc2ccsc2)CC1` it is -3.39%.
Turning to `CC1CCCN(c2ccccc2OCC(=O)N2CCOCC2)C1` (stereo unspecified), the cytotoxicity at 70.5 h turned out to be 17.5%.
With `Cc1nc(-c2ccccc2)sc1CSCCS(C)(=O)=O`, the cytotoxicity at 70.5 h was determined as 1.82%.
The figure for `Nc1cc2c(nn1)CCN(C(=O)c1csc(-c3cccs3)n1)C2` is -6.75%; for `Cc1nc(C(=O)NC2CCN(CCOc3ccc(Br)cc3)CC2)cs1` it is 1.52%.
As to `Cc1nc(-c2ccccc2)sc1CSC(C)C(N)=O` (stereo unspecified), the cytotoxicity at 70.5 h was -1.25%.
The figure for `CCOCc1cnc2n1CCN(C(=O)c1ccoc1C)C2C` (stereo unspecified) is 9.87%; for `COCC(=O)N1CCO[C@]2(CCC[C@H]2COC)C1` it is 9.79%; for `O=C([C@H]1C[C@@H]2CN(c3ncc(F)cn3)C[C@H]1O2)N1CCOCC1` it is -7.72%.
As to `CN(C)C(=O)COC1COC2(CCN(CC3CCOCC3)CC2)C1` (stereo unspecified), the cytotoxicity at 70.5 h is -4.78%.
The value for `CN(C)CCO[C@H]1CN(CC2CC2)[C@@H]2CCCO[C@H]12` was 11.6%.
